Active and inactive are the calls of the source. The rule behind the calls is not given here.
Assays:
Histamine H4 receptor = Histamine H4 receptor (Homo sapiens, UniProt Q9H3N8); assay: Displacement of [3H]histamine from human histamine H4 receptor expressed in Sf9 cells co-expressing Gai2 and Gb1c2 subunit
[1] = biological target: Histamine H2 receptor (Cavia porcellus) (UniProt P47747); assay: Antagonist activity at histamine H2 receptor in guinea pig atrium; conditions: Cardiac atrium
Histamine H3 receptor = Histamine H3 receptor (Homo sapiens, UniProt Q9Y5N1); assay: Displacement of [125I]iodoproxyfan from human histamine H3 receptor expressed in CHO-K1 cells; type: cell-based
[2] = biological target: Histamine H1 receptor (Cavia porcellus) (UniProt P31389); assay: Antagonist activity at histamine H1 receptor in guinea pig ileum; type: tissue-based
Rattus norvegicus [3] = assay: Anticonvulsant activity in Wistar rat assessed as protection against maximum electric shock-induced tonic hind limb extension at 10 mg/kg, ip; type: functional, organism-based; design: dose 10 mg/kg; conditions: Hindlimb
Rattus norvegicus [4] = assay: Anticonvulsant activity in Wistar rat assessed as protection against maximum electric shock-induced tonic hind limb extension at 10 to 15 mg/kg, ip; type: functional, organism-based; conditions: Hindlimb
Mus musculus = assay: In vivo inhibition of histamine H3 receptor in po dosed mouse assessed as Nt-methylhistamine level in brain; type: functional
Rattus norvegicus [5] = assay: Anticonvulsant activity in Wistar rat assessed as protection against pentylenetetrazole-induced seizure at 10 mg/kg, ip after 5 to 10 mins; type: functional, organism-based; design: dose 10 mg/kg
Rattus norvegicus [6] = assay: Anticonvulsant activity in Wistar rat assessed as protection against maximum electric shock-induced tonic hind limb extension at 5 mg/kg, ip; type: functional, organism-based; design: dose 5 mg/kg; conditions: Hindlimb
Rattus norvegicus [7] = assay: Anticonvulsant activity in Wistar rat assessed as protection against maximum electric shock-induced tonic hind limb extension at 10 mg/kg, ip in presence of histamine H1R antagonist pyrilamine; type: functional, organism-based; design: dose 10 mg/kg; conditions: Hindlimb
Rattus norvegicus [8] = assay: Anticonvulsant activity in Wistar rat assessed as protection against maximum electric shock-induced tonic hind limb extension at 10 mg/kg, ip in presence of histamine H3R agonist RAMH; type: functional, organism-based; design: dose 10 mg/kg; conditions: Hindlimb
Rattus norvegicus [9] = assay: Anticonvulsant activity in Wistar rat assessed as protection against maximum electric shock-induced tonic hind limb extension at 15 mg/kg, ip; type: functional, organism-based; design: dose 15 mg/kg; conditions: Hindlimb
Rattus norvegicus [10] = assay: Anticonvulsant activity in ip dosed Wistar rat assessed as protection against maximum electric shock-induced tonic hind limb extension; type: functional, organism-based; conditions: Hindlimb
Rattus norvegicus [11] = assay: Anticonvulsant activity in Wistar rat assessed as protection against pentylenetetrazole-induced seizure at 10 mg/kg, ip after 30 mins; type: functional, organism-based; design: dose 10 mg/kg

Histamine H2 receptor (Cavia porcellus), sequence (P47747 whole entry): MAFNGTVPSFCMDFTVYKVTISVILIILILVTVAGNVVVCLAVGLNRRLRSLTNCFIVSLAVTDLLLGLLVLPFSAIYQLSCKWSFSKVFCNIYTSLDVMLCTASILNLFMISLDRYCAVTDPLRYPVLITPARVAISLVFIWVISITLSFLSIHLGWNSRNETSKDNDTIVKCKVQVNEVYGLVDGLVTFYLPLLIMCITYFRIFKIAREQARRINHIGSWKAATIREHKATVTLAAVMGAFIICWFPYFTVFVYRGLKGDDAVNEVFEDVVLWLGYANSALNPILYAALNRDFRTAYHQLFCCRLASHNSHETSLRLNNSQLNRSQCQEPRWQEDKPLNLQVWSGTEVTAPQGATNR
Histamine H1 receptor (Cavia porcellus), sequence (P31389 whole entry): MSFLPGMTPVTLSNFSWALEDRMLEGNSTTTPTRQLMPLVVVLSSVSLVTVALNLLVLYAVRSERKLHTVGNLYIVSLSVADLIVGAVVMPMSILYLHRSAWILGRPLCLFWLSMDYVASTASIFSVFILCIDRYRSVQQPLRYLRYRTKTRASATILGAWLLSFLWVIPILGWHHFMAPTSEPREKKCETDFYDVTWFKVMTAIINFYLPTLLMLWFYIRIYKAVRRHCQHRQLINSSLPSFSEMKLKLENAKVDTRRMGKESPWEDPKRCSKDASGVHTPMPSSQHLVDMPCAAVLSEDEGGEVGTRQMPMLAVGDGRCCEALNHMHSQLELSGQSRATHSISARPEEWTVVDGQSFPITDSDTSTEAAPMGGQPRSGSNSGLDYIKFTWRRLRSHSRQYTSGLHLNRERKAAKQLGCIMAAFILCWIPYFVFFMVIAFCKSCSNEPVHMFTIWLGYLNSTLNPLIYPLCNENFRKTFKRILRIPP
Histamine H4 receptor, sequence (Q9H3N8 whole entry): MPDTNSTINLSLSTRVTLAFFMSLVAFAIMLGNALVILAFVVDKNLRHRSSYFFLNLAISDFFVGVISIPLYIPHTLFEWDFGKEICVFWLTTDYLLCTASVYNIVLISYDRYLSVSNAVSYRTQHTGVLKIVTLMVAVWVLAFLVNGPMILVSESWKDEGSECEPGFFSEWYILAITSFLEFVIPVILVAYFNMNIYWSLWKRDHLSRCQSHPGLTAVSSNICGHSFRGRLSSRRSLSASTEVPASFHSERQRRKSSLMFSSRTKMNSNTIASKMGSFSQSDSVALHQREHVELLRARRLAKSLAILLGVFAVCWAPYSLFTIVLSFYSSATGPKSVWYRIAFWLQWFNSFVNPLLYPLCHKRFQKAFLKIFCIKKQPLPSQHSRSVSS
Histamine H3 receptor, sequence (Q9Y5N1 whole entry): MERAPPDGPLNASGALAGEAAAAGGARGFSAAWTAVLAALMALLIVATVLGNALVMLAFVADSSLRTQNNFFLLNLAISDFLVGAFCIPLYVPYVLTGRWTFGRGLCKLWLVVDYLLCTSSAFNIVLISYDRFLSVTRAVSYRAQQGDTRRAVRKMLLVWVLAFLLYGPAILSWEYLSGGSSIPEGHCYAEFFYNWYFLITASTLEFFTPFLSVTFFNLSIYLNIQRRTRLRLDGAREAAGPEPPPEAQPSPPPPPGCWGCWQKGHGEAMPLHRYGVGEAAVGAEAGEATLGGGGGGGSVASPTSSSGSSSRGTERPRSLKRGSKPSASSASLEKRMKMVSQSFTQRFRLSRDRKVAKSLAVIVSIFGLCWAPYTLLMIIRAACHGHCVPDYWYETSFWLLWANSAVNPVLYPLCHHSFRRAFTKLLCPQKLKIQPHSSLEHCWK

O=C(NCCC1CCCCC1)OCCCc1c[nH]cn1
Ki (Histamine H4 receptor): 1550 nM
pKb [1]: 4.49
Ki (Histamine H3 receptor): 251 nM
pKb [2]: 3.96

C[C@@H](N)Cc1c[nH]cn1
Activity (Rattus norvegicus [3]): inactive

O=C(NCCCC1CCCCC1)OCCCc1c[nH]cn1
Ki (Histamine H4 receptor): 4470 nM
pKb [1]: 4.94
Ki (Histamine H3 receptor): 851 nM
pKb [2]: 4.97

C=CCCNC(=O)OCCCc1c[nH]cn1
Activity (Rattus norvegicus [4]): Active
Activity (Rattus norvegicus [3]): Active
Ki (Histamine H4 receptor): 3800 nM
pKb [1]: < 4
pKb [2]: < 4

O=C(NCCCOc1ccccc1)OCCCc1c[nH]cn1
Activity (Rattus norvegicus [3]): Active
Ki (Histamine H4 receptor): > 100000 nM
pKb [1]: 4.26
ED50 (Mus musculus): 4.1 mg/kg
Ki (Histamine H3 receptor): 1290 nM
pKb [2]: 4.34

CCC/C=C/CNC(=O)OCCCc1c[nH]cn1
Activity (Rattus norvegicus [3]): Active
Ki (Histamine H4 receptor): 7080 nM
Ki (Histamine H3 receptor): 240 nM

O=C(NCCOc1ccccc1Cl)OCCCc1c[nH]cn1
Activity (Rattus norvegicus [3]): Active
Ki (Histamine H4 receptor): 16200 nM
ED50 (Mus musculus): 2.2 mg/kg
Ki (Histamine H3 receptor): 708 nM

O=C(NCCCCOc1ccccc1)OCCCc1c[nH]cn1
Ki (Histamine H4 receptor): > 100000 nM
pKb [1]: 4.78
ED50 (Mus musculus): 5.8 mg/kg
Ki (Histamine H3 receptor): 1050 nM
pKb [2]: 4.27

COc1ccc(CN(CCN(C)C)c2ccccn2)cc1
Activity (Rattus norvegicus [3]): inactive

C=CCCCNC(=O)OCCCc1c[nH]cn1
Activity (Rattus norvegicus [5]): Active
Activity (Rattus norvegicus [6]): Active
Activity (Rattus norvegicus [7]): inactive
Activity (Rattus norvegicus [8]): inactive
Activity (Rattus norvegicus [9]): Active
Activity (Rattus norvegicus [10]): Dose-dependent effect
Activity (Rattus norvegicus [3]): Active
Ki (Histamine H4 receptor): 41700 nM
pKb [1]: 3.6
Ki (Histamine H3 receptor): 141 nM
pKb [2]: 3.9

CC/C=C/CCNC(=O)OCCCc1c[nH]cn1
Ki (Histamine H4 receptor): 13200 nM
Ki (Histamine H3 receptor): 257 nM

S=C(NC1CCCCC1)N1CCC(c2cnc[nH]2)CC1
Activity (Rattus norvegicus [3]): Active
pKb [1]: < 5
pKb [2]: < 5

CCC(C)CCNC(=O)OCCCc1c[nH]cn1 (stereo not drawn)
Activity (Rattus norvegicus [4]): Active
Activity (Rattus norvegicus [3]): Active
Ki (Histamine H4 receptor): 1230 nM
ED50 (Mus musculus): 2 mg/kg
Ki (Histamine H3 receptor): 129 nM

O=C1NC(=O)C(c2ccccc2)(c2ccccc2)N1
Activity (Rattus norvegicus [11]): Active
Activity (Rattus norvegicus [6]): inactive
Activity (Rattus norvegicus [4]): Active
Activity (Rattus norvegicus [3]): Active

O=C(NCCCCC1CCCCC1)OCCCc1c[nH]cn1
Activity (Rattus norvegicus [4]): Active
Activity (Rattus norvegicus [3]): Active
Ki (Histamine H4 receptor): 5010 nM
pKb [1]: 4.61
Ki (Histamine H3 receptor): 1950 nM
pKb [2]: < 5.52

O=C(NCCc1ccc(Cl)cc1)OCCCc1c[nH]cn1
Ki (Histamine H4 receptor): 6760 nM
pKb [1]: 4.41
ED50 (Mus musculus): 3.1 mg/kg
Ki (Histamine H3 receptor): 427 nM
pKb [2]: 4.82

O=C(NCCC1CC1)OCCCc1c[nH]cn1
Ki (Histamine H4 receptor): 1550 nM
pKb [1]: 3.5
Ki (Histamine H3 receptor): 170 nM
pKb [2]: 3.8
